Measurements from patent US5693609A, “Acylated insulin analogs” (Eli Lilly and Company, priority 1994, dated 1997).

How the values were obtained:
[1] = test system: male rats; conditions: 25 U/mL, cited from earlier work; for hypoglycemic effect, administered intramuscularly: intramuscularly (FIG. 6 of Hashimoto et al.); for hypoglycemic effect, administered intravenously: intravenously (FIG. 5 of Hashimoto et al.)
[2] = test system: conscious dog model; test: Plasma glucose after subcutaneous injection in conscious dog model; type: in vivo, beagles; conditions: for Plasma glucose concentration: n = 1
Experimental: Experiments were conducted in overnight-fasted, conscious, adult (1-2 years of age) male and female beagles weighing 8-15 kg. At least ten days prior to the study, animals were anesthetized with isoflurane, and a cut-down was made in the left or right inguinal region. Silastic catheters were inserted into the femoral artery and into the proximal caudal femoral vein and secured with 4-0 silk suture. The free ends of the catheters were passed subcutaneously to the back using a trocar needle. The catheters were then filled with a glycerol/heparin solution (3:1, v/v; final heparin concentration of 250 KIU/ml), and the free ends were knotted and placed in a subcutaneous pocket to allow complete closure of the skin. Keflex was administered both pre-operatively (20 mg/kg, IV and 20 mg/kg, I.M.) and post-operatively (250 mg, p.o. once daily for seven days) to prevent infections. Torbugesic (1.5 mg/kg, I.M.) was administered post-operatively to control pain. Blood was drawn just prior to the study day to determine the health of the animal. Only animals with hematocrits above 38% and leukocyte counts below 16,000/mm^3 were used. The afternoon before the experiment, the free ends of the catheters were exteriorized from the subcutaneous pocket through a small incision made under local anesthesia (2% lidocaine), and the dog was fitted with a tether system jacket and collar assembly. The morning of the experiment, the contents of the arterial catheter were aspirated (only the arterial line was used in these studies), the catheter was flushed with saline, and an extension line (protected by a stainless steel tether) was attached to the catheter. The dog was placed in a metabolic cage, and the catheter extension line and tether was attached to a swivel system to allow the dog to move freely about the cage. After a 15 minute rest period (45 minutes, controls), blood (2-3.5 ml) was drawn for determination of the plasma glucose concentration. A second baseline sample was drawn 15 minutes later (0 time). Test substance (phosphate buffered saline or […] of B28-N^ε -Palmitoyl Lys^B28 Pro^B29 -human insulin; this does is the molar equivalent of 1.75 U/kg of human insulin) was administered subcutaneously in the dorsal of the neck.
Arterial blood samples (2-3.5 ml) were then taken at least every 30 minutes for the next two (controls) to six (B28-N^ε -palmitoyl Lys^B28 Pro^B29 -human insulin) hours. Samples were collected in vacuum blood collection tubes containing disodium EDTA and immediately placed on ice. The samples were centrifuged, and the resulting plasma was transferred to polypropylene test tubes and stored on ice or refrigerated for the duration of the study.
At the conclusion of the experiment, the animal was anesthetized (isoflurane); the catheter was flushed with fresh saline and filled with the glycerol/heparin mixture; the free end of the catheter was knotted and placed subcutaneously as described earlier; and antibiotic was administered (300 mg Keflex, I.M.). Plasma glucose concentrations were determined the day of the study using a glucose oxidase method in a Beckman glucose analyzer. Values are listed as the mean ± the standard error of the mean (SEM).

Substance: B1-N^α -palmitoyl insulin
- hypoglycemic effect, administered intramuscularly [1]: only a short hypoglycemic effect
- hypoglycemic effect, administered intravenously [1]: very low activity

Substance: B1,B29-N^α N^ε -dipalmitoyl insulin [B1,B29-Nα, N^ε -dipalmitoyl insulin]
- hypoglycemic effect, administered intramuscularly [1]: negligible effect
- hypoglycemic effect, administered intravenously [1]: very low activity

Substance: B28-N^ε -Palmitoyl Lys^B28 Pro^B29 -human insulin
- Plasma glucose concentration ([2]; 30 minutes after 10.5 subcutaneously): 114 mg/dL
- Plasma glucose concentration ([2]; 60 minutes after 10.5 subcutaneously): 107 mg/dL
- Plasma glucose concentration ([2]; 90 minutes after 10.5 subcutaneously): 102 mg/dL
- Plasma glucose concentration ([2]; 120 minutes after 10.5 subcutaneously): 99 mg/dL
- Plasma glucose concentration ([2]; 150 minutes after 10.5 subcutaneously): 101 mg/dL
- Plasma glucose concentration ([2]; 180 minutes after 10.5 subcutaneously): 100 mg/dL
- Plasma glucose concentration ([2]; 210 minutes after 10.5 subcutaneously): 100 mg/dL
- Plasma glucose concentration ([2]; 240 minutes after 10.5 subcutaneously): 98 mg/dL
- Plasma glucose concentration ([2]; 270 minutes after 10.5 subcutaneously): 87 mg/dL
- Plasma glucose concentration ([2]; 300 minutes after 10.5 subcutaneously): 82 mg/dL
- Plasma glucose concentration ([2]; 330 minutes after 10.5 subcutaneously): 79 mg/dL
- Plasma glucose concentration ([2]; 360 minutes after 10.5 subcutaneously): 75 mg/dL
- decrease in the plasma glucose concentration ([2]; six hours post-injection, vs baseline): 35%
- activity in conscious dog model (in words) ([2]; subcutaneous, 10.5): insulin-like activity
- Plasma glucose concentration ([2]; time 0 minutes (baseline), overnight-fasted dog): 116 mg/dL
- Plasma glucose concentration ([2]; time -15 minutes (baseline, before injection), overnight-fasted dog): 116 mg/dL
